# Experimental data: the supplement of paper PMC8024199
# ± gives the standard deviation of the averaged measurements.
# Assays:
# Experiment in all cases: drug sensitivity score (DSS) (DSS score); higher = more sensitive (stronger growth inhibition); extreme values may be limits of the assay
# [1] = test system: Ba/F3 P210-BCR-ABL1 RUNX1-/- (mouse)
# How it was run: (§1)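 A drug sensitivity score summarised each dose-response curve, with luminescence from CellTiter-Glo scaled between vehicle and positive-control wells. Values are the mean of two replicates. The cells were mouse Ba/F3 clones that were CRISPR/Cas9-edited at a target exon or were edited controls, exposed on pre-printed 384-well plates to a 528-compound library at five concentrations spanning a 10,000-fold range. Plates held 10,000 cells per well in RPMI with 10% FBS for 72 h at 37 °C and 5% CO2.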
# [2] = test system: Ba/F3 P210-BCR-ABL1 RUNX1-/mut (mouse)
# How it was run: as §1
# [3] = test system: Ba/F3 P210-BCR-ABL1 RUNX1wt/wt control (mouse)
# How it was run: as §1
Structure (SMILES),drug sensitivity score [1],drug sensitivity score [2],drug sensitivity score [3]
CCOC(=O)CCNc1cc(N2CCc3ccccc3CC2)nc(-c2ccccn2)n1 [GSK-J4],5.1 ± 4.8,4.5 ± 3.8,2.45 ± 0.78
Cc1ncc(Cl)cc1NCc1ccc(C(=O)N[C@@H](CC2CCCC2)C(=O)NC2CC2)s1,4.65 ± 0.21,4 ± 4.5,0
C=CC(=O)N1CCC[C@@H](n2nc(-c3ccc(Oc4ccccc4)cc3)c3c(N)ncnc32)C1 [Ibrutinib],1.5 ± 0.71,0.2 ± 0.28,0.35 ± 0.49
CCCC(CCC)C(=O)O [Valproic acid],2.3 ± 0.28,0.75 ± 0.071,0
Cn1c(=O)n(-c2ccc(C(C)(C)C#N)cc2)c2c3cc(-c4cnc5ccccc5c4)ccc3ncc21 [Dactolisib],16.9 ± 0.42,18.3 ± 0.28,14.4 ± 0.35
COc1ccc(Cn2ccc3ccc(C(=O)NO)cc32)cc1,3.15 ± 1.6,4.25 ± 0.78,0
Nc1nc2[nH]cc(CCc3ccc(C(=O)N[C@@H](CCC(=O)O)C(=O)O)cc3)c2c(=O)[nH]1 [Pemetrexed],27.8 ± 1.6,27 ± 0.71,26.6 ± 0.42
CCOc1ccccc1-n1c(C(C)N2CCN(C(=O)COc3ccc(Cl)cc3)CC2)nc2ccccc2c1=O (configuration not stated) [Erastin],11.2 ± 1.1,8.45 ± 5.9,0
O=S(=O)(c1cccc2c(O)nccc12)N1CCCNCC1 [Hydroxyfasudil],0.15 ± 0.21,0.4 ± 0.57,0.2 ± 0.28
CC(C)Oc1ccc(C(=O)N[C@H](CNC(=O)CN(C)C)Cc2ccc(-c3cn4cccc([C@H](C)O)c4n3)cc2)cc1Cl,10.2 ± 0.57,7.5 ± 2.4,2 ± 0.14
CN(C)CC#Cc1ccc(OCCCc2sc(N3CCc4cccc(C(=O)Nc5nc6ccccc6s5)c4C3)nc2C(=O)O)c(F)c1,5.55 ± 0.071,5.95 ± 4.7,3 ± 0.14
CC1CCC(n2c3cnccc3c3cnc(Nc4ccc5c(n4)CCN(C(=O)CO)C5)nc32)CC1 (configuration not stated) [AMG-925],4.2 ± 0.42,1.8 ± 2.1,0
CNC(=O)c1cccc2cc(Oc3ccnc4cc(OCC5(N)CC5)c(OC)cc34)ccc12 [Lucitanib],3.1 ± 1.1,2.95 ± 1.1,0.05 ± 0.071
CNC(=O)c1ccc(N2C(=S)N(c3ccc(C#N)c(C(F)(F)F)c3)C(=O)C2(C)C)cc1F [Enzalutamide],1.15 ± 1.6,1.05 ± 1.5,0.3 ± 0.14
O=C(/C=C\n1cnc(-c2cc(C(F)(F)F)cc(C(F)(F)F)c2)n1)NNc1cnccn1 [Selinexor],24 ± 1.7,23 ± 0.99,16.55 ± 0.071
COc1ccc(-c2ccc3ncc4c(c3c2)n(-c2ccc(N3CCNCC3)c(C(F)(F)F)c2)c(=O)n4C)cn1 [NVP-BGT226],22.4 ± 2.3,23.1 ± 1.4,14.5
Nc1nc(NC2CC2)cc(-c2cccc(Cl)c2Cl)n1 [TH588],5.45 ± 0.35,4.45 ± 4.7,3.6 ± 1.1
Cc1ccc(-n2nc(C(C)(C)C)cc2NC(=O)Nc2ccc(OCCN3CCOCC3)c3ccccc23)cc1 [Doramapimod],3.9 ± 0.57,2.85 ± 1.5,0
NC(=O)N1CCC(CC(=O)N2CCC([C@H]3c4ncc(Br)cc4CCc4cc(Cl)cc(Br)c43)CC2)CC1 [Lonafarnib],12.1 ± 17,13.8 ± 9.8,8.2 ± 0.14
O=C1Cc2cc(C(=O)NC3C[C@H]4CC[C@@H](C3)N4S(=O)(=O)CC3CCN(CCCC(F)(F)F)CC3)c(Cl)cc2N1 (some centres not stated),0,0.05 ± 0.071,1.35 ± 1.9
Cc1cccc(-c2nn3c(c2-c2ccnc4ccc(C(N)=O)cc24)CCC3)n1 [Galunisertib],0,0,0
CONC(=O)c1ccccc1Nc1cc(Nc2cc(C)nn2C(C)C)ncc1Cl,0.15 ± 0.21,0.15 ± 0.21,0
Cc1noc2c1-c1ccccc1C(c1ccc(Cl)cc1)=N[C@H]2CC(N)=O [CPI-0610],19.6 ± 1.1,19.1 ± 4.6,14 ± 0.28
C=CCc1cccc(/C=N/NC(=O)CN2CCN(Cc3ccccc3)CC2)c1O [PAC-1],4.95 ± 0.21,4.65 ± 0.78,0.15 ± 0.21
O=C(NOC[C@H](O)CO)c1ccc(F)c(F)c1Nc1ccc(I)cc1F,7.95 ± 0.92,3.85 ± 1.1,0.2 ± 0.28

Structure (SMILES),drug sensitivity score [1],drug sensitivity score [2],drug sensitivity score [3]
O=C(O)c1ccc(O)c2ncccc12 [IOX-1],2.5 ± 2,2.4 ± 2.8,1.75 ± 0.21
Nc1ccccc1NC(=O)c1ccc(CNc2nccc(-c3cccnc3)n2)cc1 [Mocetinostat],17.5 ± 1.6,17.4 ± 2.3,17.1 ± 0.14
CCn1c(C(=O)N(C2CC2)C2CC2)cc2c3c(ncn3C)c(Nc3cc(C)n(C)n3)nc21,0.35 ± 0.49,0,0
CN(c1ncccc1CNc1nc(Nc2ccc3c(c2)CC(=O)N3)ncc1C(F)(F)F)S(C)(=O)=O,5.7 ± 0.28,7.25 ± 1.9,4.8 ± 0.57
O=C1CCc2c(Oc3ccc4c(c3)[C@@H]3[C@H](O4)[C@H]3c3nc4cc(C(F)(F)F)ccc4[nH]3)ccnc2N1 [BGB-283],21.8 ± 0.64,16.9,16 ± 0.14
O=C(O)CCCCC(CCSCc1ccccc1)SCc1ccccc1 (configuration not stated) [CPI-613],0,0,0
CCc1c2c(nc3ccc(O)cc13)-c1cc3c(c(=O)n1C2)COC(=O)[C@]3(O)CC [SN-38],33.2 ± 0.99,29.1 ± 1.8,26.9 ± 0.42
CN1CCN(c2cc(C(=O)Nc3ccc4c(c3)-c3c(c(C(N)=O)nn3-c3ccc(F)cc3)CC4)c(Cl)cn2)CC1 [PHA 408],10.2 ± 1.1,8.95 ± 1.1,7.4 ± 0.57
Nc1nc(N)c2nc(-c3cccc(O)c3)c(-c3cccc(O)c3)nc2n1 [TG100-115],3.1 ± 0.57,4.65 ± 0.49,0
CN(C)C(=O)c1cc2cnc(Nc3ccc(N4CCNCC4)cn3)nc2n1C1CCCC1 [Ribociclib],4.6 ± 2.3,1.85 ± 2.5,0
O=C(O)c1ccc(CN2CCC(CN[C@@H]3C[C@H]3c3ccccc3)CC2)cc1,1.1 ± 1.1,0,0
COCCOc1cnc2ccn([C@H](C)c3nnc4c(F)cc(-c5cnn(C)c5)cn34)c(=O)c2c1 [AMG-337],0,0,0
CC(C)(O)CC(=O)NCCn1ccc2ncnc(Nc3ccc(Oc4cccc(C(F)(F)F)c4)c(Cl)c3)c21 [TAK-285],0,0.5 ± 0.71,0
CN(C)C(=N)NC(=N)N [Metformin],0,0,0
CN1CCC(COc2cnc(-c3cccc(Cn4nc(-c5cccc(C#N)c5)ccc4=O)c3)nc2)CC1 [Tepotinib],2.8 ± 1.3,2.5 ± 3.5,0
O=C(/C=C/c1cccnc1)NCCCCC1CCN(C(=O)c2ccccc2)CC1 [Daporinad],19.4 ± 0.35,20.5 ± 4.7,15.9 ± 0.71
Cc1cc([C@@H](C)Nc2ccccc2C(=O)O)c2nc(N3CCOCC3)cc(=O)n2c1 [AZD-6482],0.1 ± 0.14,0.75 ± 1.1,0.15 ± 0.21
CCc1cncnc1N1CCN(Cc2nc3ccc(C(F)(F)F)cc3[nH]2)CC1,2 ± 1.1,0.8 ± 1.1,0
Cn1cc(-c2cnn3c(N)c(Br)c([C@@H]4CCCNC4)nc23)cn1 [MK-8776],7.25 ± 0.64,5.25 ± 3.3,0
CO[C@H]1C[C@@H]2CC[C@@H](C)[C@@](O)(O2)C(=O)C(=O)N2CCCC[C@H]2C(=O)O[C@H]([C@H](C)C[C@@H]2CC[C@@H](OP(C)(C)=O)[C@H](OC)C2)CC(=O)[C@H](C)/C=C(\C)[C@@H](O)[C@@H](OC)C(=O)[C@H](C)C[C@H](C)/C=C/C=C/C=C/1C [Ridaforolimus],13.3 ± 3.8,15.7 ± 2.7,0.15 ± 0.21
CCCCCCCCCCCCCCCCCCOP(=O)([O-])OC1CC[N+](C)(C)CC1 [Perifosine],0,0,0
CNC(=O)c1cc(COc2nnc(Nc3ccc(Cl)cc3)c3ccoc23)ccn1 [Telatinib],0.1 ± 0.14,0,0
Cc1nn(C)c(COc2ccc(N3CCN(S(=O)(=O)N(C)C)CC3)cc2)c1-c1cccc2c(CCCOc3cccc4ccccc34)c(C(=O)O)n(CCN3CCOCC3)c12,6.9 ± 0.85,6.6 ± 0.14,6.65 ± 0.64
O[C@H](C[C@H]1c2c(F)cccc2-c2cncn21)[C@H]1CC[C@H](O)CC1 [GDC-0919],0,0.05 ± 0.071,1.2 ± 0.28
